Read-outs that look alike come from different tables or passages of the source.
Legend:
[1] = test system: picornaviruses (CVB1, HRV-A2, HRV-A23, EV-68); test: Anti-picornavirus cytopathic effect (CPE) reduction assay on HeLa H1 cells; assay type: cell-based; conditions: Enterovirus B, HeLa H1, 48 h
Outline: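 HeLa H1 cells pre-treated 2 h with serially diluted compound in DMEM/2% FBS, then infected at an MOI giving full CPE in 2 days. After 48 h at 37° C, viability read by CellTiterBlue fluorescence (ex 560/em 590 nm), normalised to infected and uninfected vehicle controls; EC50 by non-linear regression, category from mean of four viruses.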

[2] = biological target: T1, PLA2G16 (Homo sapiens, UniProt P53816); test: Enzyme activity assay for PLA2G16 (Red/Green BODIPY PC-A2 fluorescence); assay type: biochemical; conditions: His-tagged PLA2G16, 4 min pre-incubation, 2 nM to 50 μM; read-out: IC50 values of the compounds determined in the enzyme activity assay for PLA2G16
T1 construct: Hexa-His (N); made in house; host or cells: E. coli BL21(DE3)
T1 sequence (P53816 1-162): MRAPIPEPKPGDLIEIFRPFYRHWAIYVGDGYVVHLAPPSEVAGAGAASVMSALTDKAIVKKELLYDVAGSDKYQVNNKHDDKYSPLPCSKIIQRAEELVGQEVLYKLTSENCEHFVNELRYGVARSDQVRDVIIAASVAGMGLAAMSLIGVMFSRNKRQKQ
Outline: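 N-His-tagged human PLA2G16 from E. coli, Ni-NTA purified. Pre-incubated 4 min with compound (2 nM–50 μM final) in pH 8.5 Tris/NaCl buffer with 5 mM glutathione, then BODIPY PC-A2 in DOPC/DOPG/cholesterol vesicles added. Fluorescence (ex 480/em 530 nm) increase over 10 min taken as activity; IC50 by non-linear regression.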

[3] = HeLa H1 cells, 48 h, category from averaging the EC50 values from four picornaviruses (CVB1, HRV-A2, HRV-A23, EV68), read-out: EC50 values of the compounds determined in the anti-picornavirus assay

Row | Structure (SMILES) | EC50 [1, 3] | IC50 [2] | EC50 ([1]; read-out: EC50 values of the compounds determined in the anti-picornavirus assay, HeLa H1 cells, 48 h, category from averaging the EC50 values from four picornaviruses (CVB1, HRV-A2, HRV-A23, EV68))
1 | O=CN(Cc1ccccc1)[C@@H](Cc1c[nH]cn1)C(=O)C(=O)NCC1CCCCC1 [FP 118, (3S)-3-(N-Benzylformamido)-N-(cyclohexylmethyl)-4-(1H-imidazol-4-yl)-2-oxobutanamide] | 1000 to 10000 nM | < 1000 nM | –
2 | CCNC(=O)C(=O)[C@H]1CCC(=O)N1Cc1ccccc1 [FP 265, 2-[(2R)-1-Benzyl-5-oxopyrrolidin-2-yl]-N-ethyl-2-oxoacetamide] | < 1000 nM | < 1000 nM | –
3 | COc1ccccc1N(C=O)C(C)C(=O)C(=O)NCC(C)C (stereo not drawn) [FP 100, 3-[N-(2-Methoxyphenyl)formamido]-N-(2-methylpropyl)-2-oxobutanamide] | 1000 to 10000 nM | < 1000 nM | –
4 | O=C(NCc1ccccn1)C(=O)C1CCC(=O)N1Cc1ccccc1 (stereo not drawn) [FP 230, 2-(1-Benzyl-5-oxopyrrolidin-2-yl)-2-oxo-N-[(pyridin-2-yl)methyl]acetamide] | > 10000 nM | < 1000 nM | –
5 | CC(C)C(NC(=O)c1ccccc1)C(=O)C(=O)NCC1CC1 (stereo not drawn) [FP 165, N-(Cyclopropylmethyl)-4-methyl-2-oxo-3-(phenylformamido)pentanamide] | > 10000 nM | < 1000 nM | –
6 | CC(C)C(=O)N1CCC(CN(C=O)C(C)C(=O)C(=O)NCC2CCCCC2)CC1 (stereo not drawn) [FP 78, N-(Cyclohexylmethyl)-3-(AN{[1-(2-methylpropanoyl)piperidin-4-yl]methyl}formamido)-2-oxobutanamide] | > 10000 nM | 1000 to 10000 nM | –
7 | Cc1cccc(CN2C(=O)CCC2C(=O)C(=O)NC2CC2)c1 (stereo not drawn) [FP 269, N-Cyclopropyl-2-{1-[(3-methylphenyl)methyl]-5-oxopyrrolidin-2-yl}-2-oxoacetamide] | 1000 to 10000 nM | < 1000 nM | –
8 | CC(NS(=O)(=O)c1ccc(Cl)cc1)C(=O)C(=O)NCC1CC1 (stereo not drawn) [FP 215, 3-(4-Chlorobenzenesulfonamido)-N-(cyclopropylmethyl)-2-oxobutanamide] | 1000 to 10000 nM | < 1000 nM | –
9 | CCCC(=O)N(c1ccccc1OC)C(C)C(=O)C(=O)NCc1cccc(Cl)c1 (stereo not drawn) [FP 143, N-[(3-Chlorophenyl)methyl]-3-[N-(2-methoxyphenyl)butanamido]-2-oxobutanamide] | 1000 to 10000 nM | < 1000 nM | –
10 | O=C(NCC1CC1)C(=O)C1CCC(=O)N1c1ccccc1 (stereo not drawn) [FP 264, N-(Cyclopropylmethyl)-2-oxo-2-(5-oxo-1-phenylpyrrolidin-2-yl)acetamide] | > 10000 nM | 1000 to 10000 nM | –
11 | CC(C)C(=O)N1CC(NC(=O)C(=O)[C@H]2CCC(=O)N2Cc2ccccc2)C1 [FP 316, 2-[(2R)-1-Benzyl-5-oxopyrrolidin-2-yl]-N-[1-(2-methylpropanoyl)azetidin-3-yl]-2-oxoacetamide] | 1000 to 10000 nM | < 1000 nM | –
12 | COc1ccccc1N(C=O)C(C)C(=O)C(=O)NCc1cc(F)cc(Cl)c1 (stereo not drawn) [FP 94, N-[(3-Chloro-5-fluorophenyl)methyl]-3-[N-(2-methoxyphenyl)formamido]-2-oxobutanamide] | < 1000 nM | < 1000 nM | –
13 | CC(C(=O)C(=O)NCC1CCCCC1)N(C=O)[C@H]1CC[C@@H](NC(=O)OC(C)(C)C)CC1 (stereo partly drawn) [FP 54, tert-Butyl N-[(1s,4s)-4-(N{1-[(cyclohexylmethyl)carbamoyl]-1-oxopropan-2-yl}-formamido)cyclohexyl]carbamate] | > 10000 nM | < 1000 nM | –
14 | COc1ccccc1C(=O)NC(C)C(=O)C(=O)NCC1CC1 (stereo not drawn) [FP 168, N-(Cyclopropylmethyl)-3-[(2-methoxyphenyl)formamido]-2-oxobutanamide] | 1000 to 10000 nM | < 1000 nM | –
15 | Cc1ccc(C(=O)NC(C)C(=O)C(=O)NCC2CC2)cc1 (stereo not drawn) [FP 159, N-(Cyclopropylmethyl)-3-[(4-methylphenyl)formamido]-2-oxobutanamide] | > 10000 nM | < 1000 nM | –
16 | C[C@H]1CC(=O)N(Cc2ccccc2)[C@H]1C(=O)C(=O)NCC1CC1 (single isomer, unassigned) [FP 337] | < 1000 nM | < 1000 nM | –
17 | COc1ccccc1N(C=O)C(C)C(=O)C(=O)NCc1cccnc1 (stereo not drawn) [FP 89, 3-[N-(2-Methoxyphenyl)formamido]-2-oxo-A[(pyridin-3-yl)methyl]butanamide] | > 10000 nM | < 1000 nM | –
18 | CC(C)C(=O)N1CCC(NC(=O)C(=O)[C@H]2CCC(=O)N2Cc2ccccc2)CC1 [FP 315, 2-[(2R)-1-Benzyl-5-oxopyrrolidin-2-yl]-N-[1-(2-methylpropanoyl)piperidin-4-yl]-2-oxoacetamide] | 1000 to 10000 nM | < 1000 nM | –
19 | CC(C)C(=O)N(C)C(C)C(=O)C(=O)NCC1CCCCC1 (stereo not drawn) [FP 144, N-(Cyclohexylmethyl)-3-(N,2-dimethylpropanamido)-2-oxobutanamide] | 1000 to 10000 nM | < 1000 nM | –
20 | CC(C)CNC(=O)C(=O)C(C)N(C=O)C1CCCCC1 (stereo not drawn) [FP 15, 3-(N-Cyclohexylformamido)-N-(2-methylpropyl)-2-oxobutanamide] | < 1000 nM | < 1000 nM | –
21 | O=C(NC1CC1)C(=O)C1CCC(=O)N1Cc1cccc(Cl)c1 (stereo not drawn) [FP 240, 2-{1-[(3-Chlorophenyl)methyl]-5-oxopyrrolidin-2-yl}-N-cyclopropyl-2-oxoacetamide] | 1000 to 10000 nM | < 1000 nM | –
22 | O=C(NCCCO)C(=O)C1CCC(=O)N1Cc1ccc(Cl)cc1 (stereo not drawn) [FP 275, 2-{1-[(4-Chlorophenyl)methyl]-5-oxopyrrolidin-2-yl}-N-(3-hydroxypropyl)-2-oxoacetamide] | > 10000 nM | < 1000 nM | –
23 | NC(=O)c1cccc(CN2C(=O)CCC2C(=O)C(=O)NCC2CCCCC2)c1 (stereo not drawn) [FP 249, 3-[(2-{[(Cyclohexylmethyl)carbamoyl]carbonyl}-5-oxopyrrolidin-1-yl)methyl]benzamide] | – | < 1000 nM | < 1000 nM
24 | O=C(NCc1cccc(=O)[nH]1)C(=O)C1CCC(=O)N1Cc1ccc(Cl)cc1 (stereo not drawn) [FP 247, 2-{1-[(4-Chlorophenyl)methyl]-5-oxopyrrolidin-2-yl}-2-oxo-N-[(6-oxo-1,6-dihydropyridin-2-yl)methyl]acetamide] | 1000 to 10000 nM | < 1000 nM | –
25 | COc1ccccc1N(C=O)C(C)C(=O)C(=O)NC(C)(C)c1cccc(Cl)c1 (stereo not drawn) [FP 11, N-[2-(3-Chlorophenyl)propan-2-yl]-3-[N-(2-methoxyphenyl)formamido]-2-oxobutanamide] | < 1000 nM | < 1000 nM | –
26 | COc1ccccc1N(C=O)C(C(=O)C(=O)NCc1cccc(Cl)c1)C(C)C (stereo not drawn) [FP 35, N-[(3-Chlorophenyl)methyl]-3-[N-(2-methoxyphenyl)formamido]-4-methyl-2-oxopentanamide] | 1000 to 10000 nM | < 1000 nM | –
27 | CNC(=O)C(=O)C1N(Cc2ccccc2)C(=O)CC12CC2 (stereo not drawn) [FP 347, 2-{5-Benzyl-6-oxo-5-azaspiro[2.4]heptan-4-yl}-N-methyl-2-oxoacetamide] | < 1000 nM | < 1000 nM | –
28 | CC(NC(=O)c1cccc(Cl)c1)C(=O)C(=O)NCC1CC1 (stereo not drawn) [FP 172, 3-[(3-Chlorophenyl)formamido]-N-(cyclopropylmethyl)-2-oxobutanamide] | 1000 to 10000 nM | < 1000 nM | –
29 | O=C(NC1CCCC1)C(=O)[C@H]1CCC(=O)N1Cc1ccccc1 [FP 239, 2-[(2R)-1-Benzyl-5-oxopyrrolidin-2-yl]-N-cyclopentyl-2-oxoacetamide] | < 1000 nM | < 1000 nM | –
30 | O=C(NC1CN(C(=O)C2CCC2)C1)C(=O)[C@H]1CCC(=O)N1Cc1ccccc1 [FP 318, 2-[(2R)-1-Benzyl-5-oxopyrrolidin-2-yl]-N-(1-cyclobutanecarbonylazetidin-3-yl)-2-oxoacetamide] | 1000 to 10000 nM | < 1000 nM | –
